Results on 14 compounds are retold here after patent publication US20260193293A1, “PEPTIDES CAPABLE OF INHIBITING PROTEIN-PROTEIN INTERACTIONS AT GABAB1A SUBUNIT AND USES THEREOF” (UNIVERSITY OF COPENHAGEN, priority 2022, published 2026).

In this assay the target is Sushi domains (SD1/2) protein. Kind of assay: Fluorescence polarization (FP) competition assay with AJAP-1probe, calculated Ki. Type of assay: binding. In outline:
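Competition against 25 nM TAMRA-labelled peptide probe binding SD1/2, in PBS pH 7.4 with 1% BSA at rt, read at 530/580 nm. IC50 from sigmoidal dose-response fits, at least triplicate; Ki calculated from IC50 using probe Kd from saturation binding.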

Where [1] appears, read: Table 8, Ala-, D-amino acids and N-methylation scans of AJAP-1WT, read-out: Ki (nM) mean ± SEM.
Where [2] appears, read: Table 6, elongation and truncation scan of PIANP binding epitope, read-out: Ki (nM) mean ± SEM.
Where [3] appears, read: Table 13, peptides for affinity maturation, read-out: Ki (nM) mean ± SEM.
[4] abbreviates: Table 4, truncation and elongation scans of APP epitope, read-out: Ki (nM) mean ± SEM.

Where two headings read alike, the source gives them in different places. Non-standard residues stand in square brackets, D forms with d. Residues, ends and D or L forms follow the SMILES beside them. NMeW = CN[C@@H](Cc1c[nH]c2ccccc12)C(=O)O; NMeI = CC[C@H](C)[C@H](NC)C(=O)O; NMeD = CN[C@@H](CC(=O)O)C(=O)O; Sar = CNCC(=O)O Where only a bound is given, the exact number is not on record here.

On to `CC(=O)N[C@@H](CCC(=O)O)C(=O)N[C@@H](CC(=O)O)C(=O)N[C@@H](CC(=O)O)C(=O)N[C@@H](CO)C(=O)N(C)[C@@H](CC(=O)O)C(=O)N[C@H](C(=O)N[C@@H](Cc1c[nH]c2ccccc12)C(=O)N[C@@H](Cc1c[nH]c2ccccc12)C(=O)NCC(=O)NCC(=O)N[C@@H](C)C(=O)N[C@@H](CC(=O)O)C(=O)N[C@H](C(=O)N[C@@H](CC(=O)O)C(N)=O)[C@@H](C)O)C(C)C` (Ac-EDDS[NMeD]VWWGGADTD-NH2), for which the Ki (Table 7, Ala-, D-amino acids and N-methylation scans of APPWT, read-out: Ki (nM) mean ± SEM) was 3760 ± 64 nM.

With `CC[C@H](C)[C@H](NC(=O)[C@H](Cc1ccccc1)NC(=O)[C@H](CCC(=O)O)NC(=O)[C@@H](NC(=O)[C@H](CCC(=O)O)NC(C)=O)[C@@H](C)O)C(=O)N[C@@H](CC(=O)O)C(=O)N[C@@H](Cc1c[nH]c2ccccc12)C(=O)NCC(=O)N1CCC[C@H]1C(=O)N[C@H](C(=O)NCC(=O)N[C@@H](CC(=O)O)C(=O)N[C@@H](CCC(=O)O)C(=O)N[C@@H](CC(=O)O)C(N)=O)[C@@H](C)O` [Peptide 26, Ac-ETEFIDWGPTGDED-NH2] (Ac-ETEFIDWGPTGDED-NH2), the Ki was 9 ± 1 nM (Table 11, deep mutational scanning validation variants of AJAP-1WT, read-out: Ki (nM) mean ± SEM); 9 nM (purified peptides, read-out: Ki); 9 nM (unit inferred, read-out: Ki). Also, where the note is “relative to AJAP-1WT”, the “fold improved affinity relative to the wild type” value is recorded as 3 fold.

For `CC[C@H](C)[C@H](NC(=O)[C@H](Cc1ccccc1)NC(=O)[C@H](CCC(=O)O)NC(=O)[C@@H](NC(=O)[C@H](CCC(=O)O)NC(C)=O)[C@@H](C)O)C(=O)N[C@@H](C)C(=O)N(C)[C@@H](Cc1c[nH]c2ccccc12)C(=O)NCC(=O)N1CCC[C@H]1C(=O)N[C@H](C(=O)NCC(=O)N[C@@H](CC(=O)O)C(=O)N[C@@H](CCC(=O)O)C(=O)N[C@@H](CC(=O)O)C(N)=O)[C@@H](C)O` [ETEFIA(N-Me-W)GPTGDED] (Ac-ETEFIA[NMeW]GPTGDED-NH2), under setting [1], the Ki was 46 ± 2 nM.

Consider `CC[C@H](C)[C@@H](C(=O)N[C@@H](C)C(=O)N[C@@H](Cc1c[nH]c2ccccc12)C(=O)NCC(=O)N1CCC[C@H]1C(=O)N[C@H](C(=O)NCC(=O)N[C@@H](CC(=O)O)C(=O)N[C@@H](CCC(=O)O)C(=O)N[C@@H](CC(=O)O)C(N)=O)[C@@H](C)O)N(C)C(=O)[C@H](Cc1ccccc1)NC(=O)[C@H](CCC(=O)O)NC(=O)[C@@H](NC(=O)[C@H](CCC(=O)O)NC(C)=O)[C@@H](C)O` [ETEF(N-Me-I)AWGPTGDED] (Ac-ETEF[NMeI]AWGPTGDED-NH2), for which, under setting [1], the Ki is 33 ± 1 nM.

For the compound `CC[C@H](C)[C@H](NC(=O)[C@H](C)NC(=O)[C@H](Cc1ccccc1)NC(=O)[C@@H]1CCCN1C(C)=O)C(=O)N[C@H](C(=O)N[C@@H](Cc1c[nH]c2ccccc12)C(=O)NCC(=O)N1CCC[C@H]1C(=O)N[C@H](C(=O)N[C@H](C(=O)N[C@@H](CO)C(=O)N[C@@H](CCCNC(=N)N)C(=O)N[C@@H](CCC(=O)O)C(=O)N[C@@H](CC(=O)O)C(N)=O)C(C)C)[C@@H](C)O)C(C)C` [PFAIVWGPTVSRED] (Ac-PFAIVWGPTVSRED-NH2), the Ki (Table 12, deep mutational scanning validation variants of PIANPWT, read-out: Ki (nM) mean ± SEM) is 792 ± 11 nM.

For `CC[C@H](C)[C@H](NC(=O)[C@H](Cc1ccccc1)NC(=O)[C@H](C)NC(=O)[C@@H](NC(=O)[C@H](CCC(=O)O)NC(C)=O)[C@@H](C)O)C(=O)N[C@@H](C)C(=O)N[C@@H](Cc1c[nH]c2ccccc12)C(=O)NCC(=O)N1CCC[C@H]1C(=O)N[C@H](C(=O)NCC(=O)N[C@@H](CC(=O)O)C(=O)N[C@@H](CCC(=O)O)C(=O)N[C@@H](CC(=O)O)C(N)=O)[C@@H](C)O` [ETAFIAWGPTGDED] (Ac-ETAFIAWGPTGDED-NH2), under setting [1], the Ki is 49 ± 2 nM.

In the case of `CC[C@H](C)[C@H](NC(=O)[C@H](C)NC(=O)[C@H](Cc1c[nH]c2ccccc12)NC(C)=O)C(=O)N[C@H](C(=O)N[C@@H](Cc1c[nH]c2ccccc12)C(=O)NCC(=O)N1CCC[C@H]1C(=O)N[C@H](C(=O)N[C@H](C(=O)N[C@@H](CO)C(=O)N[C@@H](CCCNC(=N)N)C(=O)N[C@@H](CCC(=O)O)C(=O)N[C@@H](CC(=O)O)C(=O)NCC(N)=O)C(C)C)[C@@H](C)O)C(C)C` (Ac-WAIVWGPTVSREDG-NH2), the Ki under setting [2] was more than 62500 nM.

As to `CC(=O)N[C@@H](CCC(=O)O)C(=O)N[C@@H](CC(=O)O)C(=O)N[C@@H](CC(=O)O)C(=O)N[C@@H](CO)C(=O)N[C@@H](Cc1c[nH]c2ccccc12)C(=O)N[C@H](C(=O)N[C@@H](Cc1c[nH]c2ccccc12)C(=O)N[C@@H](Cc1c[nH]c2ccccc12)C(=O)NCC(=O)N(C)CC(=O)N[C@@H](C)C(=O)N[C@@H](CC(=O)O)C(=O)N[C@H](C(=O)N[C@@H](CC(=O)O)C(N)=O)[C@@H](C)O)C(C)C` (Ac-EDDSWVWWG[Sar]ADTD-NH2), the Ki under setting [3] was 36 ± 1 nM.

For the compound `CC[C@H](C)[C@H](NC(=O)[C@H](Cc1ccccc1)NC(=O)[C@H](CCC(=O)O)NC(=O)[C@@H](NC(=O)[C@H](CCC(=O)O)NC(C)=O)[C@@H](C)O)C(=O)N1CCC[C@H]1C(=O)N[C@@H](Cc1c[nH]c2ccccc12)C(=O)NCC(=O)N1CCC[C@H]1C(=O)N[C@H](C(=O)NCC(=O)N[C@@H](CC(=O)O)C(=O)N[C@@H](CCC(=O)O)C(=O)N[C@@H](CC(=O)O)C(N)=O)[C@@H](C)O` [ETEFIPWGPTGDED] (Ac-ETEFIPWGPTGDED-NH2), the Ki (Table 11, cells printed in μM, read-out: Ki (nM) mean ± SEM) was more than 6250 nM.

On to `CC(=O)N[C@@H](CC(=O)O)C(=O)N[C@@H](CO)C(=O)N[C@@H](CC(=O)O)C(=O)N[C@H](C(=O)N[C@@H](Cc1c[nH]c2ccccc12)C(=O)N[C@@H](Cc1c[nH]c2ccccc12)C(=O)NCC(=O)NCC(=O)N[C@@H](C)C(=O)N[C@@H](CC(=O)O)C(=O)N[C@H](C(=O)N[C@@H](CC(=O)O)C(=O)N[C@@H](Cc1ccc(O)cc1)C(=O)N[C@@H](C)C(=O)N[C@@H](CC(=O)O)C(N)=O)[C@@H](C)O)C(C)C` (Ac-DSDVWWGGADTDYAD-NH2), for which, under setting [4], the Ki was 1500 ± 66 nM.

Turning to `CC[C@H](C)[C@H](NC(=O)[C@H](C)NC(=O)[C@H](Cc1c[nH]c2ccccc12)NC(=O)[C@@H]1CCCN1C(=O)[C@H](Cc1ccc(O)cc1)NC(C)=O)C(=O)N[C@H](C(=O)N[C@@H](Cc1c[nH]c2ccccc12)C(=O)NCC(=O)N1CCC[C@H]1C(=O)N[C@H](C(=O)N[C@H](C(=O)N[C@@H](CO)C(=O)N[C@@H](CCCNC(=N)N)C(=O)N[C@@H](CCC(=O)O)C(=O)N[C@@H](CC(=O)O)C(=O)NCC(N)=O)C(C)C)[C@@H](C)O)C(C)C` (Ac-YPWAIVWGPTVSREDG-NH2), the Ki under setting [2] was 433 ± 2 nM.

For the compound `CC[C@H](C)[C@H](NC(=O)[C@H](C)NC(=O)[C@H](Cc1c[nH]c2ccccc12)NC(=O)[C@@H]1CCCN1C(C)=O)C(=O)N[C@H](C(=O)N[C@@H](Cc1c[nH]c2ccccc12)C(=O)NCC(=O)N1CCC[C@H]1C(=O)N[C@H](C(=O)N[C@H](C(=O)N[C@@H](CO)C(=O)N[C@@H](CCCNC(=N)N)C(=O)N[C@@H](CCC(=O)O)C(=O)N[C@@H](CC(=O)O)C(=O)NCC(=O)NCC(N)=O)C(C)C)[C@@H](C)O)C(C)C` (Ac-PWAIVWGPTVSREDGG-NH2), under setting [2], the Ki was 561 ± 21 nM.

Take `CC(=O)N[C@@H](Cc1c[nH]c2ccccc12)C(=O)NCC(=O)NCC(=O)N[C@@H](C)C(=O)N[C@@H](CC(=O)O)C(=O)N[C@H](C(=O)N[C@@H](CC(=O)O)C(=O)N[C@@H](Cc1ccc(O)cc1)C(=O)N[C@@H](C)C(=O)N[C@@H](CC(=O)O)C(N)=O)[C@@H](C)O` (Ac-WGGADTDYAD-NH2): under setting [4], the Ki was more than 62500 nM.

For the compound `CC(=O)N[C@@H](CCC(=O)O)C(=O)N[C@@H](CC(=O)O)C(=O)N[C@@H](CC(=O)O)C(=O)N[C@@H](CO)C(=O)N[C@@H](CC(=O)O)C(=O)N[C@H](C(=O)N[C@@H](Cc1c[nH]c2ccccc12)C(=O)N[C@@H](Cc1c[nH]c2ccccc12)C(=O)N[C@@H](Cc1ccc(O)cc1)C(=O)N(C)CC(=O)N[C@@H](C)C(=O)N[C@@H](CC(=O)O)C(=O)N[C@H](C(=O)N[C@@H](CC(=O)O)C(N)=O)[C@@H](C)O)C(C)C` (Ac-EDDSDVWWY[Sar]ADTD-NH2), under setting [3], the Ki is 201 ± 6 nM.
